Article PMC11597089, “Kratom Alkaloids: A Blood–Brain Barrier Specific Membrane Permeability Assay-Guided Isolation and Cyclodextrin Complexation Study” (Molecules, 2024)

Columns and labels:
[1] = ACE complex stability, SBE-β-CD DS~10.4; format: physicochemical; conditions: sulfobutyl-ether-β-CD DS~10.4, 30 mM phosphate buffer pH 7.4, 25 °C
Method: (§1) To investigate the CD complexation behavior of the four kratom alkaloids, we aimed to develop an ACE method for a systematic comparative study. […] To ensure sufficient buffer capacity and to avoid excessive current and Joule heat generation, the buffer concentration was set to 30 mM, and the applied voltage was 15 kV.
(§2) The ACE experiments were performed by using Agilent 7100 and HP^3DCE instruments (Agilent Technologies, Waldbronn, Germany). Untreated fused silica capillaries (total length of 48.5 cm, effective length of 40 cm, inner diameter of 50 μm) were purchased from Agilent Technologies. The new capillaries were conditioned with a 1 M NaOH wash for 1 h, followed by a 30 min wash each with 0.1 M NaOH and purified water. Prior to all runs, the capillary was preconditioned by rinsing with background electrolyte for 3 min. During the measurements, 30 mM phosphate buffer at pH 7.4 (30 mM Na2HPO4-NaOH) was used. The background electrolyte contained CDs at various concentrations. […] The electropherograms were recorded at four wavelengths (200 nm, 210 nm, 215 nm, and 220 nm), and the data were evaluated at 215 nm. […] The measurements were evaluated using Origin and CEval software (v. 0.6i3). […]

[2] = ACE complex stability, S-γ-CD; format: physicochemical; conditions: sulfated-γ-CD DS~14, 30 mM phosphate buffer pH 7.4, 25 °C
Method: as §1, §2

[3] = phase-solubility study, β-CD; format: physicochemical; conditions: 30 mM phosphate buffer pH 7.4, room temperature
Method: (§3) Based on our ACE measurements, the promising CDs were selected for phase-solubility studies, along with the most widely used CD excipients, to investigate the effect of CD type and its concentration on mitragynine solubility. The experiments were conducted under conditions similar to those in the ACE measurements, applying 30 mM phosphate buffer (pH 7.4) and room temperature.
(§4) UV spectra and chromatograms were recorded at 200–400 nm, and the chromatogram obtained at 226 nm was used for quantitative analyses.
(§5) Solubility measurements were performed according to Higuchi and Connors. To each 1 mg mitragynine sample, the selected cyclodextrins were added. The final concentration of the CDs was in the range of 0–1 (m/v) %. Suspensions were shaken at room temperature for 24 h and filtered using 0.22 μm filters. The mitragynine concentration in the samples was determined by the above-described UHPLC-UV method. The solubility diagrams were constructed, and the stability constant (Kstab) and complexation efficacy (CE) were calculated using the following formulas:(5) Kstab=slope/S0(1−slope) (6) CE=slope/1−slope where S0 is the intrinsic solubility of a poorly soluble drug. The experiments were performed in a 30 mM phosphate buffer (pH 7.4).

[4] = phase-solubility study, RAME-β-CD; format: physicochemical; conditions: 30 mM phosphate buffer pH 7.4, room temperature
Method: as §3, §4, §5

[5] = phase-solubility study, HP-β-CD; format: physicochemical; conditions: 30 mM phosphate buffer pH 7.4, room temperature
Method: as §3, §4, §5

[6] = phase-solubility study, CM-β-CD; format: physicochemical; conditions: 30 mM phosphate buffer pH 7.4, room temperature
Method: as §3, §4, §5

[7] = phase-solubility study, Subetadex; format: physicochemical; conditions: 30 mM phosphate buffer pH 7.4, room temperature; for complexation efficacy (CE) with Subetadex: phase solubility, calculated from the linear part of the isotherm
Method: as §3
In the case of Subetadex, which had the highest solubility enhancement, an AN-type isotherm could be observed with a negative deviation from linearity, indicating a complex process: either the host ratio inside the complex increased, the solvent–solute interactions altered, or both contributed simultaneously.
as §4, §5

[8] = phase-solubility study, Sugammadex; format: physicochemical; conditions: 30 mM phosphate buffer pH 7.4, room temperature
Method: as §3, §4, §5

[9] = phase-solubility study, SBE-β-CD DS~6.5; format: physicochemical; conditions: 30 mM phosphate buffer pH 7.4, room temperature
Method: as §3, §4, §5

[10] = phase-solubility study, SBE-β-CD DS~10.4; format: physicochemical; conditions: 30 mM phosphate buffer pH 7.4, room temperature
Method: as §3, §4, §5

[11] = phase-solubility study, S-β-CD; format: physicochemical; conditions: 30 mM phosphate buffer pH 7.4, room temperature
Method: as §3, §4, §5

[12] = set-up: method as in PMID 24841968; conditions: after 2 h; cited from earlier work
[13] = set-up: method as in PMID 20454783; conditions: rats, in words; cited from earlier work
[14] = set-up: method as in PMID 28551311; conditions: in vivo microdialysis technique, in words; cited from earlier work

CC[C@H]1CN2CCc3c([nH]c4cccc(OC)c34)[C@@H]2C[C@@H]1/C(=C\OC)C(=O)OC [Speciogynine, speciogynine]
complex stability constant (Kstab) with SBE-β-CD DS~10.4 [1]: ~10,000 M^−1

mitragynine
complex stability constant (Kstab) with S-γ-CD [2]: 810 ± 75 M⁻¹
Kstab with β-CD (phase solubility) ([3]; 24 h, CD 0–1 (m/v) %): 55 M⁻¹
complexation efficacy (CE) with β-CD ([3]; phase solubility): 0.0021
Kstab with RAME-β-CD (phase solubility) ([4]; 24 h, CD 0–1 (m/v) %): 60 M⁻¹
complexation efficacy (CE) with RAME-β-CD ([4]; phase solubility): 0.0023
Kstab with HP-β-CD (phase solubility) ([5]; 24 h, CD 0–1 (m/v) %): 30 M⁻¹
complexation efficacy (CE) with HP-β-CD ([5]; phase solubility): 0.0011
Kstab with CM-β-CD (phase solubility) ([6]; 24 h, CD 0–1 (m/v) %): 300 M⁻¹
complexation efficacy (CE) with CM-β-CD ([6]; phase solubility): 0.0113
phase-solubility isotherm type with Subetadex [7]: AN-type
Kstab with Subetadex (phase solubility) ([7]; 24 h, CD 0–1 (m/v) %): 1730 M⁻¹
complexation efficacy (CE) with Subetadex [7]: 0.0650
complexation efficacy (CE) with Subetadex ([7]; listed as mitragynine): 0.065
Kstab with Sugammadex (phase solubility) ([8]; 24 h, CD 0–1 (m/v) %): 1150 M⁻¹
complexation efficacy (CE) with Sugammadex ([8]; phase solubility): 0.0431
Kstab with SBE-β-CD DS~6.5 (phase solubility) ([9]; 24 h, CD 0–1 (m/v) %): 480 M⁻¹
complexation efficacy (CE) with SBE-β-CD DS~6.5 ([9]; phase solubility): 0.0181
Kstab with SBE-β-CD DS~10.4 (phase solubility) ([10]; 24 h, CD 0–1 (m/v) %): 1020 M⁻¹
complexation efficacy (CE) with SBE-β-CD DS~10.4 ([10]; phase solubility): 0.0382
Kstab with S-β-CD (phase solubility) ([11]; 24 h, CD 0–1 (m/v) %): 340 M⁻¹
complexation efficacy (CE) with S-β-CD ([11]; phase solubility): 0.0127
degraded under acidic conditions [12]: more than 26%
oral bioavailability [13]: limited
blood–brain barrier permeability [14]: excellent
